Patent US8673306B2, “Compositions and methods of use for antibodies of dickkopf-1” (Novartis AG, priority 2006, dated 2014)
Entries after “also recorded” stand apart in the source; their conditions may differ.

Legend:
[1] = system: N-linked deglycosylated rhDKK1; experiment: ELISA binding to N-linked deglycosylated rhDKK1; parameters: species or system human; conditions: PNGase F treated rhDKK1, relative to WT
[2] = biological target: T1, rhDKK1 (recombinant human DKK1) (Homo sapiens, UniProt O94907); experiment: Biacore T100 SPR of captured antibody with rhDKK1; assay type: binding; conditions: WT DKK1
T1 construct: host or cells: HEK / HEK293
T1 sequence (O94907 32-266): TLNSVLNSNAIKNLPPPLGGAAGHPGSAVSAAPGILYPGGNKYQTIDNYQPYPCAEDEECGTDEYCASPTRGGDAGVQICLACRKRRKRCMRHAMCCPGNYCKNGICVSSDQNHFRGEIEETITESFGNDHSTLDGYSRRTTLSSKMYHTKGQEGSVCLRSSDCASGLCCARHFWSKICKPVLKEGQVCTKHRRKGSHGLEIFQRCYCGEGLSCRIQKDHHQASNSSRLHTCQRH
Protocol: FIG. 6. METHODS: The binding affinity and kinetics of lead candidates and rhDKK1 (recombinant human DKK1) (Batch BTP7757) are measured using surface plasmon resonance with a Biacore T100 (Biacore, Uppsala, Sweden) instrument containing a CM5 (S) sensor chip (Cat#BR-1006-68). Anti-Human IgG1 Fc (Jackson Immuno Research, Cat#109-006-098) is immobilized onto each flow cell, followed by capture of a lead candidate at an expected capture of about 100 RU. Finally, six concentrations of DKK1 (range 0.195-6.25 nM), with one repeat concentration, is run over the chip. Flow cells are activated for binding of DKK1 for 240 seconds, and disassociation is followed for 30 minutes. The normalized data (background subtracted) are fit to a 1:1 binding with mass transport model using Kinetics analysis in BIA evaluation 1.0 software. This experiment is carried out in triplicate, and data presented are the average of these three experiments with standard deviation.

[3] = system: DKK1 (N-degly); experiment: Biacore T100 SPR with N-DEGLY DKK1; assay type: binding, human
[4] = biological target: DKK3 (Homo sapiens, UniProt Q9UBP4); experiment: Biacore T100 binding to human DKK3
[5] = biological target: T2, DKK2 (Homo sapiens, UniProt Q9UBU2); experiment: Binding to human DKK2 (preliminary immunoprecipitation)
T2 sequence (Q9UBU2 34-259): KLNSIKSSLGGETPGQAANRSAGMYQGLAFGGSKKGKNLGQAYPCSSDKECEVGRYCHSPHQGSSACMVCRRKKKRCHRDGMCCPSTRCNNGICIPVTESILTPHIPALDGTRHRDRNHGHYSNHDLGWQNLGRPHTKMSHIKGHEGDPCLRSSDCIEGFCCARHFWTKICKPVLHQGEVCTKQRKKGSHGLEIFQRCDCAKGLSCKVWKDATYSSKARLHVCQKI
Description: Of note, neither DKK2 nor DKK4 conserve the Asparagine residue that is predicted to be targeted for glycosylation in the Cys-2 domain of DKK1.

[6] = biological target: T3, DKK1/LRP6 binding on cell surface (Homo sapiens, UniProt O94907); experiment: DKK1-GFP binding to LRP6 on HEK293T cell surface, fluorescence microscopy; assay type: cell-based; conditions: HEK293T transfected with LRP6 and MESD
T3 construct: made in house; LRP6 and MESD transiently transfected into HEK293T
T3 sequence (O94907 32-266): T1 sequence (O94907 32-266)
Protocol: However, upon co-transfection of LRP6 with a surface trafficking chaperone protein, MESD, GFP-tagged DKK1 can be detected on the cell surface, illustrating the specific nature of the DKK1/LRP6 interaction.
The ability of MOR04910 to inhibit DKK1/LRP6 binding on cell surface is measured by fluorescence microscopy. HEK293T cells are either mock transfected and transiently transfected with plasmids encoding LRP6 and MESD. Cells are incubated with DKK1-GFP conditioned medium together with anti-lysozyme FAb or anti-DKK1 FAb MOR04910 for 1 hour at 37° C., and examined by fluorescence microscopy. GFP fluorescence reflects DKK1-GFP binding to overexpressed LRP6 on the plasma membrane.

[7] = system: C3H10T1/2 (10T1/2) cells; experiment: Wnt-mediated osteoblast differentiation / alkaline phosphatase secretion of C3H10T1/2 cells; assay type: cell-based, mouse; conditions: Wnt3A conditioned medium
Description: Upon osteoblast differentiation the 10T1/2 cells secrete alkaline phosphatase (AP), a phenomena which can be inhibited by DKK1.

[8] = system: tumor cell lines; experiment: Survival and proliferation of cancer cell lines (Cell Titer Glo); assay type: cell-based; conditions: 100 μg/ml, three days, three serum concentrations
Protocol: This assay is carried out in three different serum concentrations (serum free, minimal growth, and complete growth). […] Cell line supernants are analyzed for DKK1 expression by ELISA.

[9] = system: PC3M2AC6 xenografts; experiment: Intratibial growth of PC3M2AC6 xenografts in mice; assay type: in vivo, mouse; conditions: i.v., 3 times a week for 2 weeks
Protocol: An osteolytic prostate tumor model is adapted from a method by [Kim 2003]. A variant of the osteolytic prostate tumor cell line (PC3M) that stably expresses luciferase (PC3M2AC6) is injected into the tibia of mice. The growth of the tumor is monitored by luciferase while changes in bone are monitored by micro-computerized tomography (micro-CT) and histology.
Control IgG is administered i.v., at 200 μg/mouse/day, q.d., 3 times a week for 2 weeks. Vehicle control (PBS) is administered i.v., q.d., 3 times a week for 2 weeks. Final efficacy data and body weight change are calculated after treatment.

[10] = system: subcutaneous PC3M2AC6 xenografts; experiment: Subcutaneous PC3M2AC6 xenografts in mice; conditions: mouse, in vivo, sc
[11] = system: tumor and sham implanted tibias; experiment: Bone effects in tumor-induced osteolytic model (micro-CT, histology); assay type: in vivo, mouse
Protocol: An osteolytic prostate tumor model is adapted from a method by [Kim 2003]. A variant of the osteolytic prostate tumor cell line (PC3M) that stably expresses luciferase (PC3M2AC6) is injected into the tibia of mice. The growth of the tumor is monitored by luciferase while changes in bone are monitored by micro-computerized tomography (micro-CT) and histology. […] Cortical damage is scored from 0=no damage to 3=severe damage. FIG. 12B. Cortical damage in tumor-implanted tibias is manually scored by microCT analysis that are blinded with respect to the study groups. No cortical damage is observed in any of the sham implanted legs. Methods: Female nude mice at age of 12 weeks old are implanted intatibially with 2×10^5 PC-3M2AC6 cells in the left tibia and sham-injection in the right tibia. Treatments started on day 5 post implantation. […] Vehicle (PBS) control is also administered q.d., 3 times a week for 2 weeks. Animals are scanned at day 7, 14, and 18 post tumor implantation using the μ-CT VivaCT40 Scanner (SCANCO, Switzerland). Trabecular bone density (BV/TV) is analyzed as described in methods. An asterisks (*) indicates statistical significant difference from both vehicle and IgG controls (n=12) at the same time point at p<0.05. In FIG. 13, to determine the bone mass, the secondary spongiosa of the tibia is imaged with the Zeiss Imager Z.1 and Axiovision software based on Giemsa stain. The readout is based on the percent calcified bone in the entire field. Every column represents the mean and standard deviation of the stated number of animals. In the PBS, IgG, and anti-DKK1/4 antibody treated groups, only animals with tumor are analyzed. […] Statistic: Dunnett Multiple Comparisons Test One-Way ANOVA. Left legs or right legs compared to the respective leg in the PBS group p<0.05*, p<0.01**, p>0.05 n.s. […] Trabecular bone density (BV/TV) is analyzed as described in methods. * indicates statistical significant difference from all controls including, vehicle, IgG, drill only, and naïve animals at the same time point at p<0.05.

DKK3, sequence (Q9UBP4 22-350): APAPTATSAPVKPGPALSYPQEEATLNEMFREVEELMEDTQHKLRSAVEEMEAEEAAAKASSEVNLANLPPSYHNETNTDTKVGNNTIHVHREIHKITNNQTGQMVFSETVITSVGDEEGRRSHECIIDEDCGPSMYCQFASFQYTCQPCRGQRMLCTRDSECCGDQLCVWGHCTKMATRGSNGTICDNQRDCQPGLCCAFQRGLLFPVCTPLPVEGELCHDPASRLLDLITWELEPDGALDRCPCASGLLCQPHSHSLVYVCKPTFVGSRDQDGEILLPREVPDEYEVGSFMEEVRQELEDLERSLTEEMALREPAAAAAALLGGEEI

anti-DKK1/4 antibody: neutralizing anti-DKK1/4 antibody sharing the same variable regions as MOR04910 (4910 chains SEQ ID NO: 111/115, BHQ880)
Percent Binding, DKK1 (dyglycosylated) [1]: 12-18% | Ka [2]: 7.449e+06 M⁻¹ s⁻¹ | Kd [2]: 2.319e-05 s⁻¹ | Ka [3]: 1.424e+06 M⁻¹ s⁻¹ | Kd [3]: 0.0003071 s⁻¹ | binding to DKK3 [4]: does not bind DKK3 | binding to DKK2 [5]: does not specifically bind DKK2; also recorded: no significant binding to DKK2 | inhibition of DKK1/LRP6 binding on cell surface [6]: blocks DKK1 interactions with LRP6 on cell surfaces | reversal of DKK1 inhibited alkaline phosphatase secretion [7]: blocks DKK1 suppression of 10T1/2 differentiation | effect on survival and proliferation of cancer cell lines [8]: No significant changes | effect on intratibial tumor growth [9]: trended toward inhibition of tumor growth | effect on subcutaneous xenograft growth [10]: non-significant trend toward inhibition | anti-osteolytic activity compared with Zometa ([11]; mouse, in vivo): equivalent anti-osteolytic activity as Zometa | tumor-induced cortical bone damage ([11]; mouse, in vivo): inhibits tumor-induced cortical bone damage | production of bone / bone volume ([11]; tumor and sham implanted tibias): increases the production of bone in both tumor and sham implanted tibias
